The text below walks through data of US20240391861A1, “PROCESS FOR THE RECOVERY OF MONOPOTASSIUM GLUCARATE AND GLUCARIC ACID” (Alliance for Sustainable Energy, LLC, priority 2021, published 2024).

For data set [1] the following is noted: 300 K, cited from earlier work.
Data set [2] is described as follows: KGA Solubility Test (glucarate solubility at various pH in water and acetone/water, quantified by LC). As to conditions: for solubility: 22 °C, thermodynamic from solid.
Procedure: (§1) KGA Solubility Test: KGA solubility was quantified by adding excess KGA to UHP water and adjusting pH between 1-6 by addition of 2 M HCl or 2 M KOH with stirring. The samples were mixed, allowed to sit overnight, and then the pH was measured again. The samples were filtered, diluted with a pH 7 phosphate buffer to reduce lactonization and the KGA concentration was quantified by LC. Similarly, KGA solubility in a 25.2 wt. % acetone solution was measured by preparing KGA-saturated solution samples at −20° C., 22° C. and 40° C. and quantified by using the liquid chromatography (LC) method.
(§2) 15 μl samples were injected into a Phenomenex Luna C18(2) 5 μm, 150 mm×4.6 mm column at a temperature of 35° C. An isocratic mobile phase of 20 mM potassium phosphate at pH 7 was pumped at a flow rate of 0.65 mL/min for 7 min.
The nature of data set [3]: Enthalpy and entropy of dissolution from Van't Hoff plot of solubility versus temperature. It is filed as physicochemical. Here is the method:
The enthalpy and entropy of dissolution of KGA and GA. The enthalpy and entropy of dissolution are calculated here using the solubility of KGA and GA in solutions of identical solvent composition as a function of temperature. The solubility of KGA and GA and related thermodynamic properties (enthalpy and entropy of dissolution) are important because they can be used for building a crystallization model and optimizing crystallization conditions in a large scale process. Accordingly, using the solubility data obtained for each compound (FIG. 2B), the enthalpy and entropy of dissolution of both KGA and GA were calculated using the Van't Hoff equation.
In Equation 1, x is the mole fraction of a compound in the solvent, Δ_dis H and Δ_dis S are the enthalpy and the entropy of dissolution, T is the absolute temperature, and R represents the ideal gas constant. The solubility of KGA or GA was measured by varying temperature to plot ln x versus 1/T, and the resulting values of enthalpy and entropy of dissolution was determined from the slope and the intercept, respectively.
The antisolvent loading in each mixture is the same as used in each purification process. Table 4 provides the dissolution enthalpy and entropy of both KGA and GA calculated from Eq. (1) using the linear fits in FIG. 5. […] The […] of GA solubility data yields a negative entropy of dissolution for GA. This could be because dissolved GA is in equilibrium with lactones, and they form dimers or organized structures that are represented by this value.

The conditions of data set [4]: reported pKa value of glucaric acid; cited from earlier work.
Another data set can be described thus: physchem. Particulars: pH 1.5, aqueous buffer, thermodynamic from solid.
A short description of data set [5]: GA Solubility Test (TGA mass balance of saturated solution). It is filed as physicochemical. As to conditions: 4° C.
Procedure: GA Solubility Test: Due to the lactonization potential of glucaric acid, the solubility was estimated using thermogravimetric analysis (TGA) based on the mass balance of the saturated solution. A sample of acetone-washed GA was dissolved in 3 mL of the IPA/water mixture (7:1 by mass) to excess, sonicated, and allowed to settle overnight at each of three temperatures: −20° C., 4° C. and 22° C. Next, the solutions were filtered at a pore size of 0.45 μm. These saturated solutions were dropped into an aluminum Differential Scanning calorimetry (DSC) pan and placed on dry ice to partially freeze them and slow the evaporation rate so that the mass of the total solution could be measured by TGA. The partially frozen solution was heated from room temperature at 5° C. per minute to 110° C. and held isothermally for 15 minutes to allow the solvent to evaporate. In this way, the mass of the remaining species in the pan was determined to μg precision. This was taken to be the total mass of GA that had dissolved in the solvent, including possible lactone products, in a catch-all method.
A short description of data set [6]: Reported pKa values of glucaric acid and molar speciation calculated from them. In kind it is physicochemical. As to conditions: at pH 3.6, calculated from reported pKa values. An excerpt:
The inset photo is the KGA precipitate from broth pH adjusted to 3.5 (left) and broth pH adjusted to 3.5 with acetone 25 wt. % acetone addition (right).

≈ marks a conversion by molar mass, not a printed value. Where only a bound is given, the exact number is not on record here.

Procedure for physchem: as §1, §2

Take `O=C1O[C@H]2[C@H](OC(=O)[C@@H]2O)[C@@H]1O` [1,4:6,3-dilactone, D-glucaro-1,4:6,3-dilactone]: the “Rate constant k8” value in data set [1] (1,4:6,3-dilactone → 6,3-lactone (so in the source)) was 5.01e-05 s⁻¹. The “Rate constant k6” value in data set [1] (1,4:6,3-dilactone → 6,3-lactone) was 0.00197 s⁻¹.

Take `O=C(O)[C@@H](O)[C@H]1OC(=O)[C@H](O)[C@H]1O` [1,4-lactone, D-glucaro-1,4-lactone]: the “Rate constant k1” value in data set [1] (1,4-lactone → GA) was 7.04e-05 s⁻¹.

Broadly, the solubility is how much of the substance goes into solution per volume. The low end stands for little dissolved substance, the high end for much dissolved substance. Consider `O=C([O-])[C@@H](O)[C@@H](O)[C@H](O)[C@@H](O)C(=O)[O-].[K+].[K+]` [K2GA, dipotassium glucarate], for which the solubility in data set [2] (aqueous buffer) is greater than 120 mg/mL.

Consider `O=C(O)[C@@H](O)[C@@H](O)[C@H](O)[C@@H](O)C(=O)O` [GA, glucaric acid], for which, in data set [3] (solvent Isopropanol 87.5 wt. %), the AdisH stood at 0.88 kcal/mol and the AdisS is on record as −40.78 J/mol/K. Besides, under “pH 1.5”, the “higher solubility than KGA” value is reported as 56%. Besides, the “solubility increase as pH is decreased” value (pH 3.1) was “about 55%”. Besides, in data set [4], the pKa1 is 3.17 and the pKa2 is recorded as 3.96. In data set [1] (GA → 1,4-lactone), the “Rate constant k2” value was 4.84e-05 s⁻¹. In data set [1] (GA → 6,3-lactone), the “Rate constant k3” value was 5.52e-05 s⁻¹. In the data set “physchem”, this molecule came in with a solubility of 26 mg/mL (≈ 124 mM). In addition, in data set [5], the “solubility in IPA-water lower than that in ACN-water” value was 53% and the “solubility in IPA-water lower than that in water” value is given as 77%.

Regarding `O=C(O)[C@@H](O)[C@@H](O)[C@H](O)[C@@H](O)C(=O)[O-].[K+]` [KGA, monopotassium glucarate], in data set [3] (solvent Acetone 24.7 wt. %), the AdisH was determined as 7.639 kcal/mol. Also, in data set [3] (solvent Acetone 24.7 wt. %), the AdisS is listed as 35.70 J/mol/K. In addition, the “maximum concentration (molar fraction) of KGA form” value in data set [6] was 55 mol %. For the same molecule, the solubility in data set [2] (pH 3.5, aqueous buffer) is roughly 16 mg/mL; in data set [2] (pH 3.5, aqueous with cosolvent or surfactant or cyclodextrin), roughly 8.1 mg/mL. Further, the “additional reduction of solubility by adding acetone” value in data set [2] (acetone 25 wt. %, pH 3.5) is 50%. Moreover, the solubility in broth entry in data set [2] (fermentation broth, pH 3.5, acetone (30 vol %)) is reported as “almost zero”. Also, the “saturation limit in high purity water” value in data set [2] (high purity water, no pH adjustment) amounted to 0.06 M. In data set [2] (pH 3.5), the “solubility relative to the solubility of K2GA at pH 5.8” value was found to be 13.5 mol %.

On to `O=C1O[C@H]([C@@H](O)C(=O)O)[C@H](O)[C@@H]1O` [6,3-lactone, D-glucaro-6,3-lactone], for which the “Rate constant k7” value in data set [1] (6,3-lactone → 1,4:6,3-dilactone (so in the source)) was 0.000664 s⁻¹. Also, in data set [1] (6,3-lactone → 1,4:6,3-dilactone), the “Rate constant k5” value is 0.000174 s⁻¹. Moreover, the “Rate constant k4” value in data set [1] (6,3-lactone → GA) is 8.7e-05 s⁻¹.
